According to US8163756B2 (priority 2004, dated 2012):
Counter-ions that a name gives are not always drawn.

What follows are compounds tested against T1, Abl kinase (Homo sapiens, UniProt P00519) (assay: Abl kinase assay A2 (as A1, 1.1 nM enzyme, 2 h pre-incubation, 0.5 mM ATP)). Settings: not given.
T1 sequence (P00519 229-512): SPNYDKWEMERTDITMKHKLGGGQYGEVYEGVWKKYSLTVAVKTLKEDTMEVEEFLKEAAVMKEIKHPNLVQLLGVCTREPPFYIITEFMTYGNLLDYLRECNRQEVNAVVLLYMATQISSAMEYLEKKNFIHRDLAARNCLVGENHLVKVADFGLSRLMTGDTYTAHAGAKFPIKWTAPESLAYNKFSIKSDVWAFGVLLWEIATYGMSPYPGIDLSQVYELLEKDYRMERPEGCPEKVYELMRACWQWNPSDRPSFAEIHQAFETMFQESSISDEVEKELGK
Format: biochemical
Experimental: IC50 values were calculated from a series of percent inhibition values determined at a range of inhibitor concentrations using software routines as implemented in the GraphPad Prism software package.

Work on `CC(C)(C)c1cc(NC(=O)Nc2cc(F)cc(C#N)c2)n(-c2ccc3c(c2)CCNC3)n1` [Example 152, 1-(3-t-butyl-1-(1,2,3,4-tetrahydroisoquinolin-6-yl)-1H-pyrazol-5-yl)-3-(3-cyano-5-fluorophenyl)urea hydrochloride] yielded an IC50 of 570 nM.

Same assay, conditions: @ 1 μM, Method A2; read-out: Abl Data (percent inhibition)

For `CC(C)(C)c1cc(NC(=O)Nc2cccc(-c3cccnc3)c2)n(-c2ccc3c(c2)CCC(=O)N3)n1` [Example 161, 1-(3-t-butyl-1-(2-oxo-1,2,3,4-tetrahydroquinolin-6-yl)-1H-pyrazol-5-yl)-3-(3-(pyridin-3-yl)phenyl)urea], the inhibition at 1 µM was 3%.

Same assay, conditions: Method A2; read-out: Abl Data (IC50)

Point of comparison: `CC(C)(C)c1cc(NC(=O)Nc2ccc(-c3cccc4c3CNC4=O)cc2)n(-c2ccc3c(c2)CC(C(=O)O)NC3)n1` (stereo not drawn) [Example 181, 6-(3-t-butyl-5-(3-(4-(1-oxoisoindolin-4-yl)phenyl)ureido)-1H-pyrazol-1-yl)-1,2,3,4-tetrahydroisoquinoline-3-carboxylic acid], IC50 6.6 nM. Against it:
- CC(C)(C)c1cc(NC(=O)Nc2cccc(C#N)c2)n(-c2ccc3c(c2)CCNC3)n1 [Example 139, 1-(3-t-butyl-1-(1,2,3,4-tetrahydro-isoquinolin-6-yl)-1H-pyrazol-5-yl)-3-(3-cyanophenyl)urea] — 21-fold higher, 140 nM
- CC(C)(C)c1cc(NC(=O)Nc2cccc(-c3ccc(N)nc3)c2)n(-c2ccc3c(c2)CCC(=O)N3)n1 [Example 160, 1-(3-(6-aminopyridin-3-yl)phenyl)-3-(3-t-butyl-1-(2-oxo-1,2,3,4-tetrahydroquinolin-6-yl)-1H-pyrazol-5-yl)urea] — 2300-fold higher, 14900 nM
- O=C(Nc1cccc(Oc2cccnc2)c1)Nc1cc(C2CCCC2)nn1-c1ccc2[nH]c(=O)ccc2c1 [Example 164, 1-(3-cyclopentyl-1-(2-oxo-1,2-dihydroquinolin-6-yl)-1H-pyrazol-5-yl)-3-(3-(pyridin-3-yloxy)phenyl)urea] — 5-fold higher, 33 nM
- Cc1ccc(NC(=O)Nc2cc(C(C)(C)C)nn2-c2ccc3nc(N4CCNCC4)ccc3c2)cc1Nc1nccc(-c2cccnc2)n1 [Example 171, 1-(3-t-butyl-1-(2-(piperazin-1-yl)quinolin-6-yl)-1H-pyrazol-5-yl)-3-(4-methyl-3-(4-(pyridin-3-yl)pyrimidin-2-ylamino)phenyl)urea] — 1.6-fold lower, 4 nM
- CC(C)(C)c1cc(NC(=O)Nc2cccc(Oc3cccnc3)c2)n(-c2ccc3c(c2)CC(C(=O)NCC(O)CO)NC3)n1 (stereo not drawn) [Example 182, 1-(1-(3-((2,3-dihydroxypropyl)carbamoyl)-1,2,3,4-tetrahydroisoquinolin-6-yl)-3-t-butyl-1H-pyrazol-5-yl)-3-(3-(pyridin-3-yloxy)phenyl)urea] — 1.9-fold lower, 3.4 nM
- CC(C)(C)c1cc(NC(=O)Nc2ccc(-c3cccc4c3CNC4=O)cc2)n(-c2ccc3c(c2)CC(C(N)=O)NC3)n1 (stereo not drawn) [Example 183, 1-(3-t-butyl-1-(3-carbamoyl-1,2,3,4-tetrahydroisoquinolin-6-yl)-1H-pyrazol-5-yl)-3-(4-(1-oxoisoindolin-4-yl)phenyl)urea] — 3-fold higher, 20 nM
- CC(C)(C)c1cc(NC(=O)Nc2cccc(Oc3cccnc3)c2)n(-c2ccc3c(c2)CCNC3C(=O)NCC(O)CO)n1 (stereo not drawn) [Example 184, 1-(1-(1-((2,3-dihydroxypropyl)carbamoyl)-1,2,3,4-tetrahydroisoquinolin-6-yl)-3-t-butyl-1H-pyrazol-5-yl)-3-(3-(pyridin-3-yloxy)phenyl)urea] — 1.5-fold higher, 10 nM
- CC(C)(C)c1cc(NC(=O)Nc2ccc(-c3cccc4c3CNC4=O)cc2)n(-c2ccc3c(c2)CCN3)n1 [Example 191, 1-(3-t-butyl-1-(indolin-5-yl)-1H-pyrazol-5-yl)-3-(4-(1-oxoisoindolin-4-yl)phenyl)urea] — 3.2-fold higher, 21 nM
- CC(C)(C)c1cc(NC(=O)Nc2ccc(-c3cccc4c3CNC4=O)cc2)n(-c2ccc3c(c2)CCN3S(C)(=O)=O)n1 [Example 192, 1-(3-t-butyl-1-(1-(methylsulfonyl)indolin-5-yl)-1H-pyrazol-5-yl)-3-(4-(1-oxoisoindolin-4-yl)phenyl)urea] — 4.1-fold higher, 27 nM
